Assays:
[1] = test system: mouse partial liver resection model; experiment: Liver weight increase in mouse partial liver resection model; assay type: in vivo; conditions: BALB/c mice; intraperitoneal, 4 times every 24 hr; about 30% of the liver removed; FIG. 2
Protocol: A partial liver resection model in which the mouse liver was partially resected was prepared as described below, and the liver weight increasing effect of the compound of the present invention was evaluated by comparing the liver weight immediately after the resection with the liver weight 3 days after the resection.
A 0.5 w/v % methylcellulose aqueous solution (0.5% MC, manufactured by FUJIFILM Wako Pure Chemical Corporation) and A-007 were evaluated. A-007 was suspended in 0.5% MC, and prepared at a final concentration of 1 mg/mL.
Mice, BALB/cAnNCrlCrlj, 5-week-old, male, were purchased from CHARLES RIVER LABORATORIES JAPAN. In terms of the 0.5% MC administration-control group, 0.5% MC 10 mL/kg was administered intraperitoneally once, and 24 hr later, the entire liver was isolated and the liver weight was measured (n=3). As used herein, the control group means a group without removal of the liver. […]
Immediately after the second administration, the abdomen was opened under isoflurane (manufactured by Intervet Co., Ltd.) anesthesia, and the root of liver lobe was ligated with a suture thread, and about 30% of the liver was finally removed by excising the tip of the ligated liver lobe. After that, the abdomen was closed, and 24 hr after the final administration, the entire liver was removed and the liver weight was measured (n=3). […]

colon organoid = experiment: Mouse colon organoid culture; assay type: cell-based; conditions: day 21 of culture, 10 μM
Protocol: (§1) 7-Week-old male C57BL/6N mice were purchased from CHARLES RIVER LABORATORIES JAPAN, INC. After the acclimation period, the small intestine and colon were isolated under anesthesia. Crypts were collected from the excised small intestine and colon according to the protocol of IntestiCult (trade mark) Organoid Growth Medium. To be specific, the inside of the intestine was washed with 1 mL of cold PBS, then incised vertically, and washed 3 times with 1 mL of cold PBS. The intestine was transferred to a 10 cm petri dish filled with cold PBS, washed thoroughly again, and transferred to a 50 mL tube containing 15 mL of cold PBS while cutting into 2 mm pieces. […] The number of crypts contained in 10 μL of the suspension was counted under a microscope to determine the concentration, and the mixture was dispensed into a 15 mL tube at 800 crypts/tube, and centrifuged at 4° C., 200 g×5 min. […] Organoids were image-analyzed over time by Cell3iMager duos (SCREEN Holdings Co., Ltd.). For image analysis, the number of crypts having a diameter of 30-200 μm was counted as the number of seeded crypts on the first day of culture, and then those grown to 70 μm or more over time were counted as organoids, and the organoid formation rate from the crypts was calculated. At that time, the average diameter of the organoids measured at the same time was calculated. […]

small intestine organoid = experiment: Mouse small intestine organoid culture; assay type: cell-based; conditions: day 9 of culture, 10 μM
Protocol: as §1

CC/C(=N\NC(=O)C(C)Nc1cncc(F)c1)c1ccc(O)c(C)c1O (centres unmarked) [A-007]
changes in the liver weight ratio [1]: has an action of promoting a liver weight increase
formation rate (%) (colon organoid; DMSO 14): 49%
average diameter (μm) (colon organoid; DMSO 207): 251 μm
formation rate (%) (small intestine organoid; DMSO 39): 70%
average diameter (μm) (small intestine organoid; DMSO 202): 257 μm

— patent publication US20220144775A1, “HYDRAZIDE COMPOUND AND KINASE INHIBITOR” (NISSAN CHEMICAL CORPORATION, priority 2019, published 2022)
